{"source": "patent US12454687B2", "about": "“Functional genomics using CRISPR-Cas systems, compositions, methods, knock out libraries and applications thereof” (The Broad Institute, Inc., priority 2012, dated 2025)", "key": {"[1]": {"test_system": "Exon 51 of the dystrophin gene", "conditions": "across 48 weeks, cited from earlier work"}, "human EMX1 locus [2]": {"test_system": "human EMX1 locus", "assay": "double nicking SURVEYOR assay, Cas9 nickase with pairs of guide RNAs, HEK293FT cells", "assay_type": "cell-based", "conditions": "sgRNA pairs generating 5′ and 3′ overhangs, offset range from −278 to +58 bp", "protocol": "Applicants transfected cells using Lipofectamine 2000, and transfected cells were harvested 48 or 72 hours after transfections. Double nicking-induced NHEJ were detected using the SURVEYOR nuclease assay as described previously herein (FIGS. 51, 52 and 53)."}, "human EMX1 locus [3]": {"test_system": "human EMX1 locus", "assay": "Surveyor assay for genome modification, HEK 293 FT cells", "assay_type": "cell-based", "conditions": "co-expression with EMX1-targeting chimeric crRNA, n=3"}, "human EMX1 locus [4]": {"test_system": "human EMX1 locus", "assay": "sequencing of amplicons containing the target locus", "assay_type": "cell-based", "conditions": "sequencing of 327 amplicons"}, "human EMX1 locus [5]": {"test_system": "human EMX1 locus", "assay": "restriction fragment length polymorphism assay for homologous recombination", "assay_type": "cell-based", "conditions": "HEK 293 FT, HindIII digest"}, "EMX1 locus": {"test_system": "EMX1 locus", "assay": "HDR with ssODNs and targeting vector in HUES9 cells", "assay_type": "cell-based, human", "description": "(a) Either a targeting plasmid or an ssODN (sense or antisense) with homology arms can be used to edit the sequence at a target genomic locus cleaved by Cas9 (red triangle). To assay the efficiency of HDR, we introduced a HindIII site into the target locus, which was PCR-amplified with primers that anneal outside of the region of homology. […] (b) ssODNs, oriented in either the sense or the antisense (s or a) direction relative to the locus of interest, can be used in combination with Cas9 to achieve efficient HDR-mediated editing at the target locus. A minimal homology region of 40 bp, and preferably 90 bp, is recommended on either side of the modification. […] Each ssODN contains homology arms of 90 bp flanking a 12-bp insertion of two restriction sites.\n114| In the HDR example, a HindIII restriction site is inserted into the EMX1 gene. These are detected by a restriction digest of the PCR amplicon:\niv. The cleavage products are imaged and quantified as described above in the SURVEYOR assay section. HDR efficiency is estimated by the formula: (b+c)/(a+b+c), where a is the integrated intensity for the undigested HDR PCR product, and b and c are the integrated intensities for the HindIII-cut fragments.\nCRISPR-Cas may be easily multiplexed to facilitate simultaneous modification of several genes and mediate chromosomal microdeletions at high efficiencies. […]"}}, "data": [{"substance": "eteplirsen", "values": [{"measurement": "functional benefit", "setting": "[1]", "result": "significant functional benefit"}, {"measurement": "dystrophin positive fibers", "setting": "[1]; average, compared to baseline", "result": 47, "unit": "%"}]}, {"substance": "H840A: SpCas9 with mutation H840A", "values": [{"measurement": "indel formation with sgRNA pairs", "setting": "human EMX1 locus [2]", "result": "unable to observe indel formation"}]}, {"substance": "SpCas9n: SpCas9 with aspartate-to-alanine substitution (D10A) in the RuvC I catalytic domain, a nickase", "values": [{"measurement": "indels at the EMX1 protospacer target", "setting": "human EMX1 locus [3]", "result": "does not generate indels"}, {"measurement": "indels detected by sequencing", "setting": "human EMX1 locus [4]", "result": "did not detect any indels"}, {"measurement": "integration of the HR template into the EMX1 locus", "setting": "human EMX1 locus [5]", "result": "catalyzed integration of the HR template"}, {"measurement": "HDR detection", "setting": "EMX1 locus", "result": "not been able to detect HDR"}]}]}
